Values quoted from earlier work, collected in patent US10952975B2, “Compositions and methods for treatment of cancer” (priority 2019, dated 2021).
Like-named read-outs stand apart in the source and are kept apart here. Each block holds one compound with its values, some of them ahead of it.

Assays:
MAT2A [1] = biological target: T1, MAT2A (Homo sapiens, UniProt P31153); details: cell-free; [L-Met]=[ATP]=1 mM, [MAT2A]=10 μg/mL; 20 min preincubation, 30 min reaction; read-out: IC50, MAT2A-catalyzed SAM synthesis
LS174T cells = details: 36 h, 10 μM FIDAS-3
MAT2A [2] = biological target: T1, MAT2A; details: in vitro
[3] = patients with advanced solid tumors
[4] = clinical studies

T1 sequence (P31153 whole entry): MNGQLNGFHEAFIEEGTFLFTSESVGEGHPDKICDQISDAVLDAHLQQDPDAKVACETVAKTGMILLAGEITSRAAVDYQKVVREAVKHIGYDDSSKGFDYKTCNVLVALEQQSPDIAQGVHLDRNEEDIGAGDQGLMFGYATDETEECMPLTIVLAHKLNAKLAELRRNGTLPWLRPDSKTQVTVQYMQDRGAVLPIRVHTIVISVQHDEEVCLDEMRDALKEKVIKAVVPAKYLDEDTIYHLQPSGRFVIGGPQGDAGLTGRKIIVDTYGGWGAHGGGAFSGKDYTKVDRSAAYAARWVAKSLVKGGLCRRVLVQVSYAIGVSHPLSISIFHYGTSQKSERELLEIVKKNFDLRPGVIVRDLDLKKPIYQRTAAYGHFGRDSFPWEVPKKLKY

IC50 (MAT2A [1]): 4.9 µM
competition against SAM for MAT2A binding (MAT2A [2]): effectively competes against SAM
Structure (SMILES): CN(C)c1ccc(/C=C/c2c(F)cccc2F)cc1 [FIDAS-3]
decrease of SAH level (LS174T cells): 56%
decrease of SAM level (LS174T cells): 64%

Structure (SMILES): COc1cc(/C=C\c2ccc(OC)c(OP(=O)(O)O)c2OP(=O)(O)O)cc(OC)c1OC [Oxi4503, Tetrasodium Combretastatin A-1 2′,3′-O-diphosphate]
dose at which a tumor response was seen [3]: 14 mg/m^2
doses with maximum tumor perfusion reductions [3]: ≥ 11 mg/m^2
maximum tolerated dose ([3]; escalation to 14 mg/m^2 was possible): 8.5 mg/m^2

Structure (SMILES): COc1ccc(/C=C\c2cc(OC)c(OC)c(OC)c2)cc1OP(=O)([O-])[O-].[Na+].[Na+] [CA-4P, Disodium CA-4-3-O-phosphate]
maximum tolerated dose [4]: 60-68 mg/m^2

Structure (SMILES): Cc1ccc2c(=O)c3cccc(CC(=O)O)c3oc2c1C [DMXAA, 5,6-dimethylxanthenone-4-acetic acid]
time to arrest of tumor blood flow after administration (murine tumors): ≤ 30 min
